Measurements published in the supplement of paper PMC10307832.

Tests used:
Experiment in all cases: relative viability (nuclei count vs DMSO), 5 days (fraction); higher = more cells survive
A-427 = system: A-427
In short: (§1)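 A single step with final 0.05% Triton X-100, 1% formaldehyde and 1 ug/ml Hoechst fixed the cells and stained nuclei 5 days after treatment. Lung cancer cell lines in 1536-well plates had been treated by pin tool the day after seeding with one drug alone or a fixed anchor-drug dose plus five library-drug doses (not always all listed) in √10 steps, and nuclei were counted on 4× images. Relative viability is the ratio of nuclei in treated wells to nuclei in vehicle wells, taken as the median of duplicate plates.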

COR-L 105 = system: COR-L 105
In short: as §1

EPLC-272H = system: EPLC-272H
In short: as §1

HCC-366 = system: HCC-366
In short: as §1

HCC-78 = system: HCC-78
In short: as §1

HOP-62 = system: HOP-62
In short: as §1

LC-2-ad = system: LC-2-ad
In short: as §1

LCLC-97TM1 = system: LCLC-97TM1
In short: as §1

LU99A = system: LU99A
In short: as §1

LXF-289 = system: LXF-289
In short: as §1

NCI-H1755 = system: NCI-H1755
In short: as §1

NCI-H1792 = system: NCI-H1792
In short: as §1

NCI-H1793 = system: NCI-H1793
In short: as §1

NCI-H1915 = system: NCI-H1915
In short: as §1

NCI-H1944 = system: NCI-H1944
In short: as §1

NCI-H1975 = system: NCI-H1975
In short: as §1

NCI-H2085 = system: NCI-H2085
In short: as §1

NCI-H2170 = system: NCI-H2170
In short: as §1

NCI-H358 = system: NCI-H358
In short: as §1

NCI-H460 = system: NCI-H460
In short: as §1

SK-LU-1 = system: SK-LU-1
In short: as §1

SW 900 = system: SW 900
In short: as §1

UMC-11 = system: UMC-11
In short: as §1

O=C(O)c1ccc(-c2c[nH]c3ncc(-c4ccccc4)cc23)cc1C1CCCC1 + COc1cccc2cc(-c3nc([C@H]4CC[C@H](C(=O)O)CC4)n4ncnc(N)c34)[nH]c12 [OSI-027] (partner 0.5 µM)
relative viability (A-427; first compound 0.04 µM): 0.48 | relative viability (A-427; first compound 0.1265 µM): 0.54 | relative viability (A-427; first compound 0.4 µM): 0.418 | relative viability (A-427; first compound 1.265 µM): 0.493 | relative viability (COR-L 105; first compound 0.04 µM): 0.635 | relative viability (COR-L 105; first compound 0.1265 µM): 0.673 | relative viability (COR-L 105; first compound 0.4 µM): 0.757 | relative viability (COR-L 105; first compound 1.265 µM): 0.838 | relative viability (EPLC-272H; first compound 0.04 µM): 0.266 | relative viability (EPLC-272H; first compound 0.1265 µM): 0.283 | relative viability (EPLC-272H; first compound 0.4 µM): 0.292 | relative viability (EPLC-272H; first compound 1.265 µM): 0.281 | relative viability (HCC-366; first compound 0.04 µM): 1.17 | relative viability (HCC-366; first compound 0.1265 µM): 0.849 | relative viability (HCC-366; first compound 0.4 µM): 0.966 | relative viability (HCC-366; first compound 1.265 µM): 0.994 | relative viability (HCC-78; first compound 0.1265 µM): 0.396 | relative viability (HCC-78; first compound 0.4 µM): 0.386 | relative viability (HCC-78; first compound 1.265 µM): 0.327 | relative viability (HOP-62; first compound 0.04 µM): 0.899 | relative viability (HOP-62; first compound 0.1265 µM): 0.859 | relative viability (HOP-62; first compound 0.4 µM): 0.707 | relative viability (HOP-62; first compound 1.265 µM): 0.805 | relative viability (LC-2-ad; first compound 0.04 µM): 0.805 | relative viability (LC-2-ad; first compound 0.1265 µM): 0.905 | relative viability (LC-2-ad; first compound 0.4 µM): 0.757 | relative viability (LC-2-ad; first compound 1.265 µM): 0.68 | relative viability (LCLC-97TM1; first compound 0.04 µM): 0.474 | relative viability (LCLC-97TM1; first compound 0.1265 µM): 0.659 | relative viability (LCLC-97TM1; first compound 0.4 µM): 0.518 | relative viability (LCLC-97TM1; first compound 1.265 µM): 0.526 | relative viability (LU99A; first compound 0.04 µM): 0.314 | relative viability (LU99A; first compound 0.1265 µM): 0.309 | relative viability (LU99A; first compound 0.4 µM): 0.364 | relative viability (LU99A; first compound 1.265 µM): 0.3 | relative viability (LXF-289; first compound 0.04 µM): 0.848 | relative viability (LXF-289; first compound 0.1265 µM): 0.879 | relative viability (LXF-289; first compound 0.4 µM): 0.764 | relative viability (LXF-289; first compound 1.265 µM): 0.581 | relative viability (NCI-H1755; first compound 0.04 µM): 0.748 | relative viability (NCI-H1755; first compound 0.1265 µM): 0.814 | relative viability (NCI-H1755; first compound 0.4 µM): 0.724 | relative viability (NCI-H1755; first compound 1.265 µM): 0.673 | relative viability (NCI-H1792; first compound 0.1265 µM): 0.908 | relative viability (NCI-H1792; first compound 0.4 µM): 0.698 | relative viability (NCI-H1792; first compound 1.265 µM): 0.696 | relative viability (NCI-H1793; first compound 0.04 µM): 0.312 | relative viability (NCI-H1793; first compound 0.1265 µM): 0.362 | relative viability (NCI-H1793; first compound 0.4 µM): 0.288 | relative viability (NCI-H1793; first compound 1.265 µM): 0.283 | relative viability (NCI-H1915; first compound 0.04 µM): 0.629 | relative viability (NCI-H1915; first compound 0.1265 µM): 0.638 | relative viability (NCI-H1915; first compound 0.4 µM): 0.604 | relative viability (NCI-H1915; first compound 1.265 µM): 0.545 | relative viability (NCI-H1944; first compound 0.04 µM): 0.429 | relative viability (NCI-H1944; first compound 0.1265 µM): 0.428 | relative viability (NCI-H1944; first compound 0.4 µM): 0.345 | relative viability (NCI-H1944; first compound 1.265 µM): 0.39 | relative viability (NCI-H1975; first compound 0.04 µM): 0.7 | relative viability (NCI-H1975; first compound 0.1265 µM): 0.871 | relative viability (NCI-H1975; first compound 0.4 µM): 0.648 | relative viability (NCI-H1975; first compound 1.265 µM): 0.629 | relative viability (NCI-H2085; first compound 0.04 µM): 0.867 | relative viability (NCI-H2085; first compound 0.1265 µM): 0.761 | relative viability (NCI-H2085; first compound 0.4 µM): 0.73 | relative viability (NCI-H2085; first compound 1.265 µM): 0.554 | relative viability (NCI-H2170; first compound 0.04 µM): 0.734 | relative viability (NCI-H2170; first compound 0.1265 µM): 0.685 | relative viability (NCI-H2170; first compound 0.4 µM): 0.703 | relative viability (NCI-H2170; first compound 1.265 µM): 0.676 | relative viability (NCI-H358; first compound 0.04 µM): 0.807 | relative viability (NCI-H358; first compound 0.1265 µM): 0.933 | relative viability (NCI-H358; first compound 0.4 µM): 0.727 | relative viability (NCI-H358; first compound 1.265 µM): 0.359 | relative viability (NCI-H460; first compound 0.04 µM): 0.645 | relative viability (NCI-H460; first compound 0.1265 µM): 0.75 | relative viability (NCI-H460; first compound 0.4 µM): 0.683 | relative viability (NCI-H460; first compound 1.265 µM): 0.511 | relative viability (SK-LU-1; first compound 0.04 µM): 0.329 | relative viability (SK-LU-1; first compound 0.1265 µM): 0.391 | relative viability (SK-LU-1; first compound 0.4 µM): 0.324 | relative viability (SK-LU-1; first compound 1.265 µM): 0.274 | relative viability (SW 900; first compound 0.04 µM): 0.696 | relative viability (SW 900; first compound 0.1265 µM): 0.493 | relative viability (SW 900; first compound 0.4 µM): 0.631 | relative viability (SW 900; first compound 1.265 µM): 0.595 | relative viability (UMC-11; first compound 0.04 µM): 0.482 | relative viability (UMC-11; first compound 0.1265 µM): 0.547 | relative viability (UMC-11; first compound 0.4 µM): 0.46 | relative viability (UMC-11; first compound 1.265 µM): 0.375
